Experimental data reported in US20220089636A1, “TETRAZOLONE SUBSTITUTED STEROIDS AND USE THEREOF” (Beijing Xuanyi PharmaSciences Co., Ltd., priority 2019, published 2022).
Like-named read-outs stand apart in the source and are kept apart here.

Columns and labels:
α1β2γ2 GABAA receptor = target: T1, α1β2γ2 GABAA receptor (Homo sapiens, UniProt P14867+P47870); assay: Patch clamp electrophysiology assay of recombinant α1β2γ2 GABAA receptors (potentiation of 2 μM GABA-evoked Cl- current); type: cell-based; conditions: HEK293T cells stably transfected with α1β2γ2 GABAA
T1 construct: expressed in transfected cells
How it was run: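 Whole-cell voltage clamp at −80 mV on HEK293T cells stably expressing human α1β2γ2 GABAA. Compounds applied for 3 min, then 2 μM GABA (EC10–EC20) applied to assess potentiation of Cl− current. Ascending 0.003–10 μM concentrations tested on each cell, 180 s apart, with Rm >500 MΩ, Ra <15 MΩ and leak <100 pA as cell criteria.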

[1] = Mouse PK study (i.v. and p.o.); type: in vivo; conditions: plasma, male CD1 mice
Procedure: Test compounds were dosed to male CD1 mice at 5 mg/kg by oral gavage (p.o.) or 1 mg/kg by intravenous injection (i.v.). Blood samples were taken at 0.083, 0.25, 0.5, 1.0, 3.0, 6.0 and 24 hours post i.v. dosing and at 0.25, 0.5, 1.0, 3.0, 6.0 and 24 hours post p.o. dosing. The plasma concentration of compounds were determined by HPLC.

PTZ-treated mice = assay: Acute PTZ (pentylenetetrazol-induced seizure) assay; type: in vivo, Male CD-1 mice; conditions: 3 mg/kg oral gavage 60 min prior to PTZ 120 mg/kg s.c.; observed 30 min
Procedure: The anticonvulsant effect of test compounds were assessed in the pentylenetetazol-induced seizure assay in mice similar to methods described in Giardina & Gasior (2009) Curr Protoc Pharmacol., Chapter 5. Male CD-1 mice were housed in groups of five under controlled conditions (temperature of 22±2° C. and 12:12 light-dark cycle, lights on at 8:00 am) and water and food were available ad libitum. The mice were housed for 1 week prior to behavioral testing, at which time they weighed 25-35 g. Pentylenetetrazol (PTZ, Sigma) was dissolved in sterile 0.9% saline at a concentration of 12 mg/mL concentration for subcutaneous administration. Test compounds were formulated and administered via oral gavage at 60 minutes prior to PTZ injection. AU solutions were made fresh and were given in a volume of 10 ml/kg body weight.
Mice were acclimated to the test room for at least 30 min before compound administration. Mice were randomized into at least four test groups (vehicle and at least three doses of the test compound) with 10 mice per group. […] Following the drug pretreatment time, the mice were injected s.c. with PTZ (120 mg/kg). Immediately following the PTZ injection, mice were individually placed into observation chambers (25×15×15 cm) and a three-channel timer was started. Each mouse was continuously observed for 30 min and the following behaviors were recorded by observers blinded to the treatments: 1) latency to clonic convulsions that persist for 3 sec and followed by an absence of righting reflex 2) latency to tonic convulsions, characterized by the rigid extension of all four limbs that exceeded a 90 degree angle with the body 3) latency to death 4) number of clonic and tonic convulsions. Data are presented as mean±S.E.M and one-way analysis of variance with Dunnetfs or Bonferroni's post-hoc test was used to detect significant differences in latency and number between the vehicle and dose group, p values<0.05 were regarded as statistically significant.

T1 sequence (P14867 28-456): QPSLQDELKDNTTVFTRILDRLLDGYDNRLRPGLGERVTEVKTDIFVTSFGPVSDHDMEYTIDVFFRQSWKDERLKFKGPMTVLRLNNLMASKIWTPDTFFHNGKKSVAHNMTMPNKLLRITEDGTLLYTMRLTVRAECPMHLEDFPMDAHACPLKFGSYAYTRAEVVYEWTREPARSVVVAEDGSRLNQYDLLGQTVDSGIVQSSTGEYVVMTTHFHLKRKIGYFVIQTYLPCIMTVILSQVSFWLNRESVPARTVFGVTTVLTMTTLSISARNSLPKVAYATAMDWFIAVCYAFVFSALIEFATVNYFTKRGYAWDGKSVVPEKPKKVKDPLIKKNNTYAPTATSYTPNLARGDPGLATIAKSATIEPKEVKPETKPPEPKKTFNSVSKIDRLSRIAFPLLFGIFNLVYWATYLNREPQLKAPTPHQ
T1 sequence (P47870 25-512 limits assumed): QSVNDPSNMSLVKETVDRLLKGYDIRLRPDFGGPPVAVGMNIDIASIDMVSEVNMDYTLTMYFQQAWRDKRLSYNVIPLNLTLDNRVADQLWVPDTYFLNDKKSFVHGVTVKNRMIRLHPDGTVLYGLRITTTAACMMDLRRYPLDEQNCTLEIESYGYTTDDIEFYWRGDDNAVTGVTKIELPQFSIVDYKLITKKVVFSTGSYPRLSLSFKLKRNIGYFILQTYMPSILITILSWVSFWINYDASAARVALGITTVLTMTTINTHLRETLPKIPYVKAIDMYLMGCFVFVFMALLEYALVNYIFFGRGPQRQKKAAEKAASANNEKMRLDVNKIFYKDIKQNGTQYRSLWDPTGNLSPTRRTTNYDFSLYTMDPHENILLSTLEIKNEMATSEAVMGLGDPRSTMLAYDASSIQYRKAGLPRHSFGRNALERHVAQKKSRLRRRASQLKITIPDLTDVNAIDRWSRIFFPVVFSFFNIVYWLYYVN
T1 sequence (P18507 40-475 partner): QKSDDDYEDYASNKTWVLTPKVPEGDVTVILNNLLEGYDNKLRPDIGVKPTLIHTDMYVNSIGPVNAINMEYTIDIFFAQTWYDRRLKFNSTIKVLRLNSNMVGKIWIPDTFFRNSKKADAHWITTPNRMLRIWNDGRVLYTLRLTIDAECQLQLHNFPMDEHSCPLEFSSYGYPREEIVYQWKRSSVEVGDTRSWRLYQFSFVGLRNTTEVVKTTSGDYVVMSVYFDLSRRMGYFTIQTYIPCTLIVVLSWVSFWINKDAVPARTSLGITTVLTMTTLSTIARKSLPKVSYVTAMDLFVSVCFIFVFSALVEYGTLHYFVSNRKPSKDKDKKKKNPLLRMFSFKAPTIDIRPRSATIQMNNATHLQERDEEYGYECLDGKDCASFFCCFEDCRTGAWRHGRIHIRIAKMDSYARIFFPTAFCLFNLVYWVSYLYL

## C[C@@]1(O)CC[C@H]2[C@H](CC[C@@H]3[C@@H]2CC[C@]2(C)[C@@H](C(=O)Cn4nnn(-c5ccc(F)cc5)c4=O)CC[C@@H]32)C1 [Example 11, 1-(4-fluorophenyl)-4-(2-((3R,5R,8R,9R,10S,13S,14S,17S)-3-hydroxy-3,13-dimethylhexadecahydro-1H-cyclopenta[a]phenanthren-17-yl)-2-oxoethyl)-1,4-dihydro-5H-tetrazol-5-one]
α1β2γ2 GABAA receptor; whole cell, 2 μM GABA, -80 mV
  EC50: 44 nM
α1β2γ2 GABAA receptor; HEK-293T, potentiation of 2 μM GABA current
  Emax: 795%
[1]; iv, 1 mg/kg i.v.
  clearance: 13.5 mL/min/kg
[1]; iv, 1 mg/kg i.v., read-out: AUClast (hr*ng/mL) i.v.
  AUC(0-t): 1230 ng·h/mL
[1]; iv, 1 mg/kg i.v., read-out: T1/2 (hr) i.v. (converted)
  half-life: 3.9 h
[1]; iv, 1 mg/kg i.v., read-out: Vss
  Vd: 2.42 L/kg
[1]; po, 5 mg/kg p.o.
  Cmax: 274 ng/mL
  Tmax: 1 h
[1]; po, 5 mg/kg p.o. vs 1 mg/kg i.v.
  bioavailability: 52.3%
[1]; po, 5 mg/kg p.o., read-out: AUClast (hr*ng/mL) p.o.
  AUC(0-t): 3200 ng·h/mL
PTZ-treated mice
  Clonic Seizure Latency (sec) (Mean): 717.4 ± 238.5 s
  Clonic Seizure Number (Mean): 0.8 ± 0.2
  Mortality (%): 0.0%
  Onset of death (sec) (Mean): 1800 + 0.0 sec
  Tonic Seizure Latency (sec) (Mean): 1800 + 0.0 sec
  Tonic Seizure Number (Mean): 0.0 + 0.0
